In article PMC3133487 (Journal of Antimicrobial Chemotherapy, 2011):
Values after ≈ are worked out from the molar mass of the structure shown. Values joined by “and” are separate entries in the source; they are usually repeats but may differ in a detail not shown here. Equal entries are not always repeated.

How the values were obtained:
M. fortuitum = assay: Microdilution MIC assay in cation-adjusted Mueller–Hinton broth; format: cell-based, Mycobacterium fortuitum; conditions: Mycolicibacterium fortuitum, read-out: MIC M. fortuitum
M. tuberculosis MurE [1] = molecular target: T1, M. tuberculosis MurE (Mycobacterium tuberculosis, UniProt P9WJL3); assay: MurE ligase inhibition, phosphate colorimetric detection method; format: biochemical
T1 sequence (P9WJL3 1-535): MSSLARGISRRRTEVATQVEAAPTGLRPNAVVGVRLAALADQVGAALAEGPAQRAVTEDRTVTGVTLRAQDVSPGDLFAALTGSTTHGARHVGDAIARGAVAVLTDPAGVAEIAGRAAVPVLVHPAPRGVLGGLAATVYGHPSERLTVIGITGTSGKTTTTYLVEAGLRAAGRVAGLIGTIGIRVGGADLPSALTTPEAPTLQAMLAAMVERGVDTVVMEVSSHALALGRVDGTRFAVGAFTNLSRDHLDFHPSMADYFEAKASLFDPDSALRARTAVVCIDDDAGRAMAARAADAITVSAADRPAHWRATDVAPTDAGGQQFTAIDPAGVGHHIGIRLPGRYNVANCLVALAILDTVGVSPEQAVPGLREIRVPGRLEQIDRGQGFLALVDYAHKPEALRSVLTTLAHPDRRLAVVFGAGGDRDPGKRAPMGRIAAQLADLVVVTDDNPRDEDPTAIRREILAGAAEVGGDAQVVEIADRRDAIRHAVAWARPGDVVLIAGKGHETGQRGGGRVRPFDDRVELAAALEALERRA

RAW264.7 macrophages = conditions: RAW264.7, 48 h, ±SD
M. smegmatis mc^2155 = assay: microbe, parasite or virus in culture; format: cell-based, Mycobacterium smegmatis; conditions: Mycolicibacterium smegmatis, MC^2155, 72 h, read-out: MIC M. smegmatis mc^2155
M. tuberculosis MurE [2] = molecular target: T1, M. tuberculosis MurE; assay: MurE ligase inhibition, HPLC quantification of UDP-MurNAc-tripeptide; format: biochemical
M. phlei = assay: Microdilution MIC assay in cation-adjusted Mueller–Hinton broth; format: cell-based, Mycobacterium phlei; conditions: Mycolicibacterium phlei, read-out: MIC M. phlei
EMRSA-15 = assay: Microdilution MIC assay in Mueller–Hinton broth; format: cell-based; conditions: Staphylococcus aureus, read-out: MIC S. aureus EMRSA-15
EMRSA-16 = assay: Microdilution MIC assay in Mueller–Hinton broth; format: cell-based; conditions: Staphylococcus aureus, read-out: MIC S. aureus EMRSA-16

## NNC(=O)c1ccncc1 [Isoniazid]
M. fortuitum
  MIC: 1 µg/mL and 3.65 µM
M. tuberculosis MurE [1]
  IC50: > 1000 µM
RAW264.7 macrophages
  Murine macrophages GIC50 (50% growth inhibition concentration): >500 mg/L
M. smegmatis mc^2155
  MIC: 5 µg/mL and 18.5 µM
M. tuberculosis MurE [2]
  IC50: > 1000 µM
M. phlei
  MIC: 4 µg/mL and 15 µM

## CCn1cc(C(=O)O)c(=O)c2cc(F)c(N3CCNCC3)cc21 [norfloxacin]
EMRSA-15
  MIC: 0.5 µg/mL (≈ 1.57 µM)
EMRSA-16
  MIC: 256 µg/mL (≈ 802 µM)
